Like-named read-outs stand apart in the source and are kept apart here.
System: MSSA ATCC 25923
Assay: Disk diffusion assay (zone of inhibition)
Format: cell-based, Staphylococcus aureus
Conditions: for Effect of addition of 5% P80 on zone diameter (average increase): MSSA ATCC 25923, disks containing 30 μg; for zone of inhibition at 30 µg/disc: Staphylococcus aureus, 30 μg in disk, without prediffusion, average of 2 disks
Description: The study was designed to identify conditions that improve oritavancin diffusion in agar and consequently yield a zone diameter ≧15 mm for the CLSI quality control strain MSSA ATCC 25923. Excipients that increased the disk diffusion of oritavancin in agar relative to disks containing only oritavancin were identified and selected for further study. […] A prediffusion step at room temperature was introduced to maximize oritavancin diffusion prior to initiation of bacterial growth. In this step, the antimicrobial disks were placed on agar plates seeded with a bacterial isolate and incubated at room temperature for 3 hours. Plates were then incubated overnight at 37° C. Zone diameters around the disks in which bacterial growth was inhibited were measured with a ruler and reported in millimeters.
Ethanol-sterilized Whatman paper disks (6 mm diameter) were allowed to dry then impregnated with 20 microliters of oritavancin solution containing total amounts ranging from 90 to 360 micrograms. Disks were allowed to dry at room temperature for various times prior to use.
Bacterial suspensions were prepared and adjusted to an optical density of 0.1 at 600 nm. […] The plate was swabbed a second time, perpendicular to the orientation of the first swab. To assess the impact of prediffusion on diameter of inhibition zones, two disks were immediately placed on one half of the plate and the plate was incubated for 3 hours at room temperature. After 3 hours, two additional disks were placed on the other half of the plate then the plate was incubated overnight at 37° C. Zone diameters were measured with a ruler and reported in millimeters. […]
Oritavancin powder was dissolved in freshly-prepared solutions of the indicated excipients at concentrations of 0.625, 1.25, 2.5, 5, and 10 mg/ml (adjusted for potency based on lot 875561L00 purity of 83.1%) by vortexing for a minimum of 5 minutes. Oritavancin solutions in the various excipients, while not visually clear, were free from any apparent particulates as assessed visually. Sterile Oxoid blank disks were impregnated with 20 μl of these oritavancin solutions, resulting in oritavancin disk loads ranging from 12.5 to 200 μg. Unless indicated otherwise, disks were allowed to dry overnight at room temperature prior to use.
[…] Swabbing was continued at a right angle and then at an oblique angle to the first and second swabs. Disks were placed upon the seeded plates with sterile forceps. Plates were then incubated overnight at 37° C. and inhibition zone diameters were measured with a ruler and reported in millimeters.

[1] = read-out: Average zone diameter, S. aureus ATCC 25923, +5% P80
[2] = read-out: Average zone diameter, S. aureus ATCC 25923, Control (without P80)

CCCCCCCCCC(=O)N[C@@H](Cc1c[nH]c2ccccc12)C(=O)N[C@H](CC(N)=O)C(=O)N[C@@H](CC(=O)O)C(=O)N[C@@H]1C(=O)NCC(=O)N[C@@H](CCCN)C(=O)N[C@@H](CC(=O)O)C(=O)N[C@H](C)C(=O)N[C@@H](CC(=O)O)C(=O)NCC(=O)N[C@H](CO)C(=O)N[C@@H]([C@H](C)CC(=O)O)C(=O)N[C@@H](CC(=O)c2ccccc2N)C(=O)O[C@@H]1C [Daptomycin]
Effect of addition of 5% P80 on zone diameter (average increase): no effect
zone of inhibition at 30 µg/disc (S. aureus ATCC 25923, +5% P80, read-out: Average zone diameter): 18 mm
zone of inhibition at 30 µg/disc (S. aureus ATCC 25923, Control (without P80), read-out: Average zone diameter): 18.5 mm

CCCCCCCCCCNCCN[C@@]1(C)C[C@H](O[C@H]2[C@H](Oc3c4cc5cc3Oc3ccc(cc3Cl)[C@@H](O)[C@@H](NC(=O)[C@@H](CC(C)C)NC)C(=O)N[C@@H](CC(N)=O)C(=O)N[C@H]5C(=O)N[C@H]3C(=O)N[C@H](C(=O)N[C@H](C(=O)O)c5cc(O)c(CNCP(=O)(O)O)c(O)c5-c5cc3ccc5O)[C@H](O)c3ccc(c(Cl)c3)O4)O[C@H](CO)[C@@H](O)[C@@H]2O)O[C@@H](C)[C@H]1O [Telavancin]
zone of inhibition at 30 µg/disc [1]: 18 mm
zone of inhibition at 30 µg/disc [2]: 16.5 mm

CN[C@H](CC(C)C)C(=O)N[C@H]1C(=O)N[C@@H](CC(N)=O)C(=O)N[C@H]2C(=O)N[C@H]3C(=O)N[C@H](C(=O)N[C@H](C(=O)O)c4cc(O)cc(O)c4-c4cc3ccc4O)[C@H](O)c3ccc(c(Cl)c3)Oc3cc2cc(c3O[C@@H]2O[C@H](CO)[C@@H](O)[C@H](O)[C@H]2O[C@H]2C[C@](C)(N)[C@H](O)[C@H](C)O2)Oc2ccc(cc2Cl)[C@H]1O [Vancomycin]
Effect of addition of 5% P80 on zone diameter (average increase): no effect
zone of inhibition at 30 µg/disc [1]: 17.5 mm
zone of inhibition at 30 µg/disc [2]: 17.5 mm
